This assay has as its target T1, ΔF508-CFTR (Homo sapiens, UniProt P13569, DEL508-508).
T1 construct: expressed in transfected cells
The experiment in a line: Membrane potential optical (FRET/VIPR) assay, identification of potentiator compounds. Format: cell-based. The following applies: Table 3, assay not given; for % Activity: relative efficacy. A digest of the protocol:
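Double-addition potentiator screen: compound delivered in gluconate-substituted Cl^--free medium, membrane potential followed via CC2-DMPE/DiSBAC2(3) FRET on VIPR. Cells were ΔF508-CFTR-expressing NIH3T3 mouse fibroblasts, held 2 h at 37° C. then 24 h at 27° C. before assay.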

T1 sequence (P13569 with tags, fused parts or gaps DEL508-508): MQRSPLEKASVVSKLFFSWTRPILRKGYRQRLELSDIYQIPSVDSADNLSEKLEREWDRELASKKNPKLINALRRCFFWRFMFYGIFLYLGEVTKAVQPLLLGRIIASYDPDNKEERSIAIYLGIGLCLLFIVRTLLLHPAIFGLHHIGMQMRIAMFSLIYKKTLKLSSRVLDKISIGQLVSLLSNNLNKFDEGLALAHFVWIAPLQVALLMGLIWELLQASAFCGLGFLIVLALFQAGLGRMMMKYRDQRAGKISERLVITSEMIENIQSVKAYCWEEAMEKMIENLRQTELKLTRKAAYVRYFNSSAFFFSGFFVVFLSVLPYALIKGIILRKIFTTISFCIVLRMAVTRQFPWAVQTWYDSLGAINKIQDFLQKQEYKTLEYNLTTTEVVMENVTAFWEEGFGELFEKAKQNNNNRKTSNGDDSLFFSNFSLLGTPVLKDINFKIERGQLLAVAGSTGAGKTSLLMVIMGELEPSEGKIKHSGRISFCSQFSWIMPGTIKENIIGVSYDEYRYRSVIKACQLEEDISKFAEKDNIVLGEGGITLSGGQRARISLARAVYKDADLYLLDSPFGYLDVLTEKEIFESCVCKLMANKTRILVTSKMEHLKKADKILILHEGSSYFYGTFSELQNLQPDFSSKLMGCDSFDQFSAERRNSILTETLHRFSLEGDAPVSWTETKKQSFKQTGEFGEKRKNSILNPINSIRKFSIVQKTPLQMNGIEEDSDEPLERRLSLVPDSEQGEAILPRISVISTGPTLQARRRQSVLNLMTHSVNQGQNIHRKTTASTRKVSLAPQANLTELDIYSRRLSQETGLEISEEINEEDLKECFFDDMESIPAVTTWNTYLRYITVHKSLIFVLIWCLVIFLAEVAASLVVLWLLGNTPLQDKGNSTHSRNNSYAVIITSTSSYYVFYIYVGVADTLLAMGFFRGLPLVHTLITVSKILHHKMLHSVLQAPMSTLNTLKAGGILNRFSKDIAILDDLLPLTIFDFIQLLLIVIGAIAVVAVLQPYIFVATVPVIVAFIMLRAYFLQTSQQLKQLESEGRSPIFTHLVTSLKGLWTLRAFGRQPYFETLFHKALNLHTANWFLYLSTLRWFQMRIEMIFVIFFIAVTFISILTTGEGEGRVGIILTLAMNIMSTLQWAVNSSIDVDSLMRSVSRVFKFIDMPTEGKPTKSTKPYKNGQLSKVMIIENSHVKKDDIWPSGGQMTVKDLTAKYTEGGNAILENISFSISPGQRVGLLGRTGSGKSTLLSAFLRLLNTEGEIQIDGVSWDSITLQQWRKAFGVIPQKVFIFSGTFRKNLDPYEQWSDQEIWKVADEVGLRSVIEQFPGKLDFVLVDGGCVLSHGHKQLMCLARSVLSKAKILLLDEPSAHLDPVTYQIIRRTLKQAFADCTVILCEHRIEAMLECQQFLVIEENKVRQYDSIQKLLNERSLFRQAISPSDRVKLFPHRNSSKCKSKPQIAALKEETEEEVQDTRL

Consider `CC1(c2ccc(NC(=O)c3c[nH]c4ccc(F)cc4c3=O)cc2)COC1` [Compound 521, 6-fluoro-N-[4-(3-methyloxetan-3-yl)phenyl]-4-oxo-1H-quinoline-3-carboxamide], for which the EC50 is below 10 µM and the “% Activity” value was “++ (between 25% to 100%)”.
Take `Cc1ccccc1-c1ccccc1NC(=O)c1c[nH]c2ccccc2c1=O` [Compound 199, N-[2-(o-tolyl)phenyl]-4-oxo-1H-quinoline-3-carboxamide]: the EC50 was below 10 µM and the “% Activity” value is “++ (between 25% to 100%)”.
The like results for `O=C(Nc1cnc2ccccc2c1)c1c[nH]c2ccccc2c1=O` [Compound 75, 4-oxo-N-(3-quinolyl)-1H-quinoline-3-carboxamide] were, in that order, 25 to 60 µM and “+ (<25%)”.
For the molecule `O=C(Nc1ccccc1-c1cc(Cl)ccc1Cl)c1c[nH]c2ccccc2c1=O` [Compound 213, N-[2-(2,5-dichlorophenyl)phenyl]-4-oxo-1H-quinoline-3-carboxamide], the EC50 was below 10 µM and the “% Activity” value is on record as “++ (between 25% to 100%)”.
Take `CCC(C)c1ccc(NC(=O)c2c[nH]c3ccccc3c2=O)cc1` (stereo not shown) [Compound 310, 4-oxo-N-(4-sec-butylphenyl)-1H-quinoline-3-carboxamide]: the EC50 is below 10 µM and the “% Activity” value was “++ (between 25% to 100%)”.
`Cc1ccc(-c2ccccc2NC(=O)c2c[nH]c3ccccc3c2=O)cc1C` [Compound 261, N-[2-(3,4-dimethylphenyl)phenyl]-4-oxo-1H-quinoline-3-carboxamide]: the EC50 is below 10 µM and the “% Activity” value is listed as “++ (between 25% to 100%)”.
As to `CC(C)(C)c1ccc(NC(=O)c2c[nH]c3ccccc3c2=O)cc1S(N)(=O)=O` [Compound 268, 4-oxo-N-(3-sulfamoyl-4-tert-butyl-phenyl)-1H-quinoline-3-carboxamide], the EC50 fell in the range of 10 to 25 µM and the “% Activity” value is reported as “++ (between 25% to 100%)”.
In the case of `COc1c(N)cc(C(C)(C)C)cc1NC(=O)c1c[nH]c2ccccc2c1=O` [Compound 55, N-(3-amino-2-methoxy-5-tert-butyl-phenyl)-4-oxo-1H-quinoline-3-carboxamide], the EC50 was in the range of 25 to 60 µM and the “% Activity” value is listed as “+ (<25%)”.
Regarding `C[C@@H]1CCCN1c1ccc(NC(=O)c2c[nH]c3ccc(F)cc3c2=O)c(C(F)(F)F)c1` [Compound 684, (R)-6-fluoro-N-(4-(2-methylpyrrolidin-1-yl)-2-(trifluoromethyl)phenyl)-4-oxo-1,4-dihydroquinoline-3-carboxamide], the EC50 is below 10 µM and the “% Activity” value was “++ (between 25% to 100%)”.
For `O=C(Nc1ccccc1-c1nc(-c2ccc(Cl)cc2)no1)c1c[nH]c2ccccc2c1=O` [Compound 102, N-[2-[3-(4-chlorophenyl)-1,2,4-oxadiazol-5-yl]phenyl]-4-oxo-1H-quinoline-3-carboxamide], the EC50 fell in the range of 10 to 25 µM and the “% Activity” value was “++ (between 25% to 100%)”.
Regarding `CCOC(=O)C(C)(C)c1ccc(NC(=O)c2c[nH]c3ccccc3c2=O)cc1` [Compound 420, 2-methyl-2-[4-[(4-oxo-1H-quinolin-3-yl)carbonylamino]phenyl]-propanoic acid ethyl ester], the EC50 is below 10 µM and the “% Activity” value was “++ (between 25% to 100%)”.
Consider `CCCCOc1ccccc1NC(=O)c1c[nH]c2ccccc2c1=O` [Compound 177, N-(2-butoxyphenyl)-4-oxo-1H-quinoline-3-carboxamide], for which the EC50 was below 10 µM and the “% Activity” value is reported as “+++ (>100%)”.
`COc1cc(NC(=O)c2c[nH]c3cccc(O)c3c2=O)cc(C(F)(F)F)c1` [Compound 502, 5-hydroxy-N-[3-methoxy-5-(trifluoromethyl)phenyl]-4-oxo-1H-quinoline-3-carboxamide]: the EC50 is below 10 µM and the “% Activity” value was “++ (between 25% to 100%)”.
Consider `CC(C)(C)c1cc(C(C)(C)C)c(NC(=O)c2c[nH]c3cc(F)c(F)cc3c2=O)cc1O` [Compound 672, 6,7-difluoro-N-(5-hydroxy-2,4-ditert-butyl-phenyl)-4-oxo-1H-quinoline-3-carboxamide], for which the EC50 was below 10 µM and the “% Activity” value was “++ (between 25% to 100%)”.
`CC(C)(C)c1cc(C(C)(C)C)c(NC(=O)c2c[nH]c3ccc(F)cc3c2=O)cc1O` [Compound 103, 6-fluoro-N-(5-hydroxy-2,4-ditert-butyl-phenyl)-4-oxo-1H-quinoline-3-carboxamide]: the EC50 is below 10 µM and the “% Activity” value is recorded as “+++ (>100%)”.
The like results for `O=C(Nc1ccccc1-c1ccc(OC(F)(F)F)cc1)c1c[nH]c2ccccc2c1=O` [Compound 388, 4-oxo-N-[2-[4-(trifluoromethoxy)phenyl]phenyl]-1H-quinoline-3-carboxamide] were, in that order, below 10 µM and “++ (between 25% to 100%)”.
In the case of `O=C(Nc1ccc(-c2ccccc2)cc1)c1c[nH]c2ccccc2c1=O` [Compound 397, 4-oxo-N-(4-phenylphenyl)-1H-quinoline-3-carboxamide], the EC50 is below 10 µM and the “% Activity” value is given as “++ (between 25% to 100%)”.
On the same counts, the results for `Cc1ccc2c(=O)c(C(=O)Nc3cc(O)c(C4(C)CCCCC4)cc3F)c[nH]c2c1` [Compound 499, N-[2-fluoro-5-hydroxy-4-(1-methylcyclohexyl)-phenyl]-7-methyl-4-oxo-1H-quinoline-3-carboxamide] are below 10 µM and “++ (between 25% to 100%)”.
On to `O=C(Nc1ccc2ncccc2c1)c1c[nH]c2ccccc2c1=O` [Compound 280, 4-oxo-N-(6-quinolyl)-1H-quinoline-3-carboxamide], for which the EC50 lay within 25 to 60 µM and the “% Activity” value was “+ (<25%)”.
Consider `CN(C)[C@@H]1CCN(c2ccc(NC(=O)c3c[nH]c4ccccc4c3=O)c(C(F)(F)F)c2)C1` [Compound 534, (R)-N-(4-(3-(dimethylamino)pyrrolidin-1-yl)-2-(trifluoromethyl)phenyl)-4-oxo-1,4-dihydroquinoline-3-carboxamide], for which the EC50 was below 10 µM and the “% Activity” value was “++ (between 25% to 100%)”.
In the case of `CC(=O)N1CCC2(CCN(C(=O)OC(C)(C)C)CC2)c2ccc(NC(=O)c3c[nH]c4ccccc4c3=O)cc21` [Compound 334, 7′-[(4-oxo-1H-quinolin-3-ylcarbonyl)amino]-spiro[piperidine-4,4′(1′H)-1-acetyl-quinoline], 2′,3′-dihydro-carboxylic acid tert-butyl ester], the EC50 lay within 10 to 25 µM and the “% Activity” value was “++ (between 25% to 100%)”.
For the molecule `CC(C)(C)c1cc(F)c(NC(=O)c2c[nH]c3cccc(O)c3c2=O)cc1O` [Compound 407, N-(2-fluoro-5-hydroxy-4-tert-butyl-phenyl)-5-hydroxy-4-oxo-1H-quinoline-3-carboxamide], the concentration for a half-maximal effect (EC50) was below 10 µM and the “% Activity” value is recorded as “++ (between 25% to 100%)”.
In the case of `CCCCCc1ccc(NC(=O)c2c[nH]c3ccccc3c2=O)cc1` [Compound 99, 4-oxo-N-(4-pentylphenyl)-1H-quinoline-3-carboxamide], the EC50 is below 10 µM and the “% Activity” value is “++ (between 25% to 100%)”.
Turning to `O=C(Nc1ccc(CO)cc1)c1c[nH]c2ccccc2c1=O` [Compound 209, N-[4-(hydroxymethyl)phenyl]-4-oxo-1H-quinoline-3-carboxamide], the EC50 lay within 10 to 25 µM and the “% Activity” value is on record as “++ (between 25% to 100%)”.
In the case of `CC(C)(C)c1cc(C#N)c(NC(=O)c2c[nH]c3ccccc3c2=O)cc1O` [Compound 476, N-(4-tert-Butyl-2-cyano-5-hydroxyphenyl)-1,4-dihydro-4-oxoquinoline-3-carboxamide], the EC50 is below 10 µM and the “% Activity” value is reported as “++ (between 25% to 100%)”.
Regarding `CC(=O)c1ccc2c(=O)c(C(=O)Nc3cc(O)c(C(C)(C)C)cc3C(C)(C)C)c[nH]c2c1` [Compound 604, 7-acetyl-N-(5-hydroxy-2,4-ditert-butyl-phenyl)-4-oxo-1H-quinoline-3-carboxamide], the EC50 was below 10 µM and the “% Activity” value is recorded as “++ (between 25% to 100%)”.
Regarding `Cc1cc2ccc(NC(=O)c3c[nH]c4ccccc4c3=O)cc2[nH]1` [Compound 104, N-(2-methyl-1H-indol-6-yl)-4-oxo-1H-quinoline-3-carboxamide], the EC50 was below 10 µM and the “% Activity” value is given as “++ (between 25% to 100%)”.
As to `Cc1cccc2[nH]cc(C(=O)Nc3ccc(N4C[C@@H]5CC[C@H]4C5)cc3C(F)(F)F)c(=O)c12` [Compound 582, N-(4-((1S,4R)-2-azabicyclo[2.2.1]heptan-2-yl)-2-(trifluoromethyl)phenyl)-5-methyl-4-oxo-1,4-dihydroquinoline-3-carboxamide], the EC50 was below 10 µM and the “% Activity” value was “++ (between 25% to 100%)”.
Regarding `CC(C)n1cc(C(=O)Nc2ccccc2)c(=O)c2ccccc21` [Compound 29, 1-isopropyl-4-oxo-N-phenyl-1H-quinoline-3-carboxamide], the EC50 was in the range of 10 to 25 µM and the “% Activity” value is given as “++ (between 25% to 100%)”.
Regarding `CCOc1ccccc1-c1ccc(CN)cc1NC(=O)c1c[nH]c2ccccc2c1=O` [Compound 163, 4-Oxo-1,4-dihydro-quinoline-3-carboxylic acid (4-aminomethyl-2′-ethoxy-biphenyl-2-yl)-amide], the EC50 was 10 to 25 µM and the “% Activity” value is “++ (between 25% to 100%)”.
Consider `COc1cc(NC(=O)c2c[nH]c3ccccc3c2=O)cc(C(F)(F)F)c1` [Compound 691, N-[3-methoxy-5-(trifluoromethyl)phenyl]-4-oxo-1H-quinoline-3-carboxamide], for which the EC50 was below 10 µM and the “% Activity” value is “++ (between 25% to 100%)”.
For the molecule `O=C(Nc1cccc(O)c1)c1c[nH]c2ccccc2c1=O` [Compound 144, N-(3-hydroxyphenyl)-4-oxo-1H-quinoline-3-carboxamide], the EC50 was below 10 µM and the “% Activity” value is “++ (between 25% to 100%)”.

These data come from patent US8614327B2 (Vertex Pharmaceuticals Incorporated, priority 2004, dated 2013).
